Data as given in PubChem BioAssay AID2747 (The Scripps Research Institute Molecular Screening Center, 2010).
Activity calls are given as the source filed them. No rule for the calls is given here.

Target: Luciferin 4-monooxygenase (Photinus pyralis) (UniProt P08659)
Test: native luciferase enzyme inhibition – biochemical, luminescence, dose response, artefact control for HSP90 inhibitor project, late-stage follow-up (AID 2747)
Settings: purified firefly luciferase, counterscreen

Chain of Luciferin 4-monooxygenase (Photinus pyralis) (P08659 whole entry, looked up): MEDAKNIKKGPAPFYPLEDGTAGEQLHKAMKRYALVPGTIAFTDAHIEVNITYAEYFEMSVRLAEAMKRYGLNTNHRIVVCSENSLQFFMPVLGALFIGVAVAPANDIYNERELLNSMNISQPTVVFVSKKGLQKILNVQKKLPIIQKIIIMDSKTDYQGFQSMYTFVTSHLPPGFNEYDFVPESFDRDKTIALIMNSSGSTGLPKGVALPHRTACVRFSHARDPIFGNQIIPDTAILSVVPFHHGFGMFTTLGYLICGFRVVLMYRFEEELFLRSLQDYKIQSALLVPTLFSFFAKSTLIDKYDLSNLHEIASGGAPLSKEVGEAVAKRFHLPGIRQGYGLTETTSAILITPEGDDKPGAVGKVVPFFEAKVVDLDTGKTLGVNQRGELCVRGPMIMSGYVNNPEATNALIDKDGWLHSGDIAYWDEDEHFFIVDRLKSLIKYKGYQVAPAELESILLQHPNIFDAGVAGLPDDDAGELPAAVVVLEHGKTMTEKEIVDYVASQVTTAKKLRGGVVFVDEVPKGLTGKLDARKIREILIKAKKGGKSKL

Question: With `Cc1c(-c2nc(-c3ccc(C(F)(F)F)cc3)no2)n(C)oc1=O` as the compound, how does the IC50 read?
Answer: Its IC50 is > 60 µM (inactive).

Question: How did the IC50 turn out when `COC(=O)c1ccccc1OCCCOc1ccc(C)cc1OC` was run?
Answer: The IC50 was > 60 µM (inactive).

Question: Which IC50 does the source give for `CCc1ccc(OCc2ccc(C(=O)OC)o2)cc1` here?
Answer: The IC50 was > 60 µM (inactive).

Question: How did the IC50 turn out when `Cc1c(-c2nc(-c3ccc(C(C)(C)C)cc3)no2)n(C)oc1=O` was run?
Answer: The IC50 was > 60 µM (inactive).

Question: For `COc1ccccc1NC(=O)c1coc(=O)c(Br)c1`, which IC50 is on record?
Answer: The IC50 was > 60 µM (inactive).

Question: For `CCOC(=O)c1csc(NC(=O)c2cc3ccccc3o2)n1`, which IC50 is on record?
Answer: The IC50 was > 60 µM (inactive).

Question: With `CC(=O)Nc1ccccc1OCC(=O)c1cc(C)n(Cc2cccs2)c1C` as the compound, how does the IC50 read?
Answer: The IC50 was > 60 µM (inactive).

Question: Which IC50 does the source give for `COc1cc(C=NNc2ccc(Cl)c(C(=O)O)c2)ccc1OC(=O)c1ccc(F)cc1` here?
Answer: Its IC50 is > 60 µM (inactive).

Question: How did the IC50 turn out when `Cc1cc(NO)nc(-c2ccc(Br)cc2)n1` was run?
Answer: Its IC50 is > 60 µM (inactive).

Question: With `CCOC(=O)C1=C(c2ccc(OC)cc2)C(=O)c2ccccc2C1=O` as the compound, how does the IC50 read?
Answer: The IC50 was > 60 µM (inactive).
